{"source": "patent US8729048B2", "about": "“Methods and materials for assessing responsiveness to PARP inhibitors and platinating agents” (Mayo Foundation for Medical Education and Research, priority 2011, dated 2014)", "assay_type_in_all_cases": "cell-based", "key": {"[1]": {"tested_on": "DNA-PK substrates (DNA-PKcs Thr2609, Histone H2AX Ser139) in PEO1 cells", "assay": "Immunoblotting for phosphorylation of DNA-PK substrates", "details": "72 hours, with 20 μM ABT-888, 500 nM DNA-PKi or 5 μM ATMi", "procedure": "FIG. 2. DNA-PK is activated following PARP inhibitor exposure in PEO1 cells. (A) Western blots for poly(ADP-ribose) polymer (pADPr) and phosphorylation of DNA-PK substrates (DNA-PKcs autophosphorylation at Thr^2609 and Histone H2AX at Ser^139) in PEO1 cells following 72 hours exposure to increasing concentrations of ABT-888 (0, 0.625, 1.25, 2.5, 5, 10, 20, and 40 μM). Hsp90, total DNA-PKcs, and Histone H1 are used as loading controls. (B) Phosphorylation of DNA-PK substrates after treatment for 72 hours with diluent (0.2% DMSO, lanes 1 and 4), 500 nM DNA-PK inhibitor AZ12594248 (DNA-PKi, lanes 2 and 5), or 5 μM ATM inhibitor KU55933 (ATMi, lanes 3 and 6) alone (lanes 1-3) or in combination with 20 μM ABT-888 (lanes 4-6). (C) Quantitation of cells positive for phospho-H2AX foci in PEO1 and PEO4 cells, following treatment with DMSO, 500 nM DNA-PKi, 20 μM ABT-888 (ABT), ABT-888 and DNA-PKi, 50 μM Etoposide (Etop), or 5 Gy ionizing radiation (IR). Cells were exposed to ABT-888 and/or DNA-PKi for 72 hours, etoposide for 1 hour, or allowed to recover for 1 hour after IR. Results are reported as mean±SEM of 3 independent experiments. (D) Confocal images of PEO1 cells treated as in […]. Phospho-Ser^139-H2AX is shown in green, phospho-Thr^2609-DNA-PKcs in red, and Hoechst 33258 in blue.\nCells were washed twice with calcium- and magnesium-free Dulbecco's phosphate-buffered saline (PBS) and solubilized in 6 M guanidine hydrochloride containing 250 mM Tris-HCl, pH 8.5 at 20° C., 10 mM EDTA, 1% (v/v) 2-mercaptoethanol, and 1 mM freshly added phenylmethylsulfonyl fluoride. After preparation for electrophoresis as described elsewhere (Kaufmann et al., Blood, 89:2098-2104 (1997)), aliquots containing 50 μg of protein (determined by the bicinchoninic acid method—S10) were separated on SDS-polyacrylamide gels containing 8% (w/v) acrylamide, electrophoretically transferred to nitrocellulose, and probed with immunological reagents as described elsewhere (Kaufmann, Anal. Biochem., 296:283-286 (2001)). […]"}, "[2]": {"tested_on": "BRCA2-deficient PEO1 cells", "assay": "Clonogenic assay, PEO1", "procedure": "(§1) FIG. 5. NHEJ is a major contributor to PARP inhibitor effects in BRCA2-deficient cells. (A) Western blots showing knockdown of Ku80 in PEO1 and PEO4 cells. (B) Clonogenic survival of PEO1 and PEO4 cells from (A), which were treated with the indicated ABT-888 concentration for 72 hours, washed, and allowed to form colonies. (C) Western blots following treatment with siRNA targeting luciferase (control), Ku80, PARP1, or both Ku80 and PARP1. (D) Clonogenic viability of PEO 1 and PEO4 cells from (C). Following knockdown, cells were plated onto triplicate plates and allowed to form colonies. (E) Clonogenic survival of PEO1 cells following Artemis knockdown. After treatment with the indicated siRNA, plates were treated with indicated concentration of ABT-888 for 72 hours, washed, and allowed to form colonies. Inset, Western blots showing knockdown using luciferase (control) or Artemis siRNAs in PEO1 cells. (F) Clonogenic survival of PEO1 and PEO4 cells treated for 72 hours with ABT-888 in combination with diluent or 500 nM DNA-PKi. All results are reported as means of triplicate plates±SEM, and are representative of 3 independent experiments.\nFIG. 13. DNA-PK inhibition diminishes the lethality of multiple PARP inhibitors in PEO1 cells. (A) Representative clonogenic plates after PEO1 cells were treated with ABT-888 (0, 5, or 20 μM) with or without 500 nM DNA-PKi. (B, C) Bar graphs comparing clonogenic survival of PEO1 cells exposed to two PARP inhibitors with or without 500 nM DNA-PKi. The PARP inhibitors used for these assays are ABT-888 (B) and AZD2281/olaparib (C). Results are reported as mean±SEM of triplicate plates.\nFIG. 18. Artemis knockdown confers resistance to PARP inhibition and cisplatin in BRCA2-deficient/mutant cells. Clonogenic survival assays of PEO1 shRNA lines continuously exposed to ABT-888 (A) or cisplatin (B), or exposed to ionizing radiation (C). (D-F) Clonogenic survival assays of CAPAN1 shRNA lines exposed to ABT-888 (D), cisplatin (E), or exposed to ionizing radiation (F).\n(§2) Colony formation assays were performed on siRNA-transfected PEO1 and PEO4 cells 48 hours after the second transfection. Cells were trypsinized and plated at 750 cells/plate in triplicate 60-mm dishes containing medium A, allowed to grow 10-14 days, and stained with Coomassie Brilliant Blue. Colonies containing ≧50 cells were scored manually. To assess methyl methanesulfonate (MMS) sensitivity, PEO1 or PEO4 cells were incubated for 48 hours after the second siRNA treatment, plated onto 60-mm dishes, allowed to adhere for 4 hours, exposed to the indicated concentration of MMS (Sigma-Aldrich) for 1 hour, washed with sterile RPMI 1640, and allowed to grow into colonies in medium A. For drug treatment, cells (without siRNA) were allowed to adhere for 4-6 hours, then treated with the indicated concentrations of ABT-888 and/or AZ12594248 for 72 hours. Following drug treatment, cells were washed with drug-free RPMI 1640, cultured for 10-14 days in medium A, and stained. For HCC1937 and HCC1937/BRCA1 cells, a similar procedure was used with several changes: 1000 cells were plated in medium B, and treatment was continuous for 16-20 days. M059J and M059J+DNA-PKcs were plated at 1000 cells per plate in medium C and treated for 48 hours. GM16666 and 16667 were plated at 1000 cells per plate in medium D and treated for 48 hours."}, "[3]": {"tested_on": "BRCA2-positive PEO4 cells", "assay": "Clonogenic assay, PEO4", "details": "XRCC1 siRNA, 1 hour exposure", "procedure": "as §1\nas §2, with “Following drug treatment, cells were washed with drug-free RPMI 1640, cultured for 10-14 days in medium A, and stained. For HCC1937 and HCC1937/BRCA1 cells, a similar procedure was used with several changes: 1000 cells were plated in medium B, and treatment was continuous for 16-20 days. M059J and M059J+DNA-PKcs were plated at 1000 cells per plate in medium C and treated for 48 hours. GM16666 and 16667 were plated at 1000 cells per plate in medium D and treated for 48 hours.” left out"}}}
{"smiles": "O=c1cc(-c2cccc3c2Sc2ccccc2S3)oc(N2CCOCC2)c1", "note": "[KU55933]", "values": [{"measurement": "effect on ABT-888-induced phosphorylation of DNA-PKcs and H2AX", "setting": "[1]", "result": "did not"}]}
{"smiles": "N.N.[Cl][Pt][Cl]", "note": "[cisplatin]", "values": [{"measurement": "clonogenic sensitivity after stable Artemis knockdown", "setting": "[2]; PEO1 shRNA lines, continuous exposure", "result": "conferred resistance"}]}
{"smiles": "COS(C)(=O)=O", "note": "[methane methylsulfonate, methyl methanesulfonate]", "values": [{"measurement": "clonogenic sensitivity after XRCC1 knockdown", "setting": "[3]", "result": "sensitized"}, {"measurement": "clonogenic sensitivity after XRCC1 knockdown", "setting": "[2]; PEO1 cells, XRCC1 siRNA, 1 hour exposure", "result": "sensitized"}]}
